Seven compounds from patent publication US20110086759A1, “CHEMICAL COMPOUNDS” (SYNGENTA CROP PROTECTION, INC., priority 2007, published 2011) can be followed below.

What all share (assay type): in vivo
Test [1] deals with Alopecurus myosuroides (ALOMY). As to the kind of experiment: Pre-emergence biological efficacy, glasshouse pot test. As to conditions: 312 h. Put shortly: (§1)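 Seeds sown in standard soil in pots, held one day in glasshouse (24/16 °C day/night, 14 h light, 65% humidity), then sprayed with aqueous solution from acetone/water (50:50) formulation with 0.5% Tween 20 at 1000 or 250 g/ha. Damage scored after 13 days (0 = none, 100 = total).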

Test [2] concerns Amaranthus retoflexus (AMARE). The test is described as above. The conditions noted are these: Amaranthus retroflexus, 312 h. Put shortly: as §1
Test [3] relates to Echinochloa crus-galli (ECHCG). The test is described as above. As to conditions: 312 h. Put shortly:
as §1

The test system of test [4] is Ipomea hederaceae (IPOHE). Described as above. As to conditions: Ipomoea hederacea, 312 h. An outline of the steps: as §1
Test [5] deals with Setaria faberi (SETFA). The description is as above. As to conditions: 312 h. Put shortly:
as §1

Test [6] has as its system Solanum nigrum (SOLNI). The description is as above. As to conditions: 312 h. Put shortly:
as §1

The test system of test [7] is Alopecurus myosuroides (ALOMY). As to the kind of experiment: Post-emergence biological efficacy, glasshouse pot test. As to conditions: 312 h. Put shortly: (§2)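 Plants were sown in standard soil and grown 8 days in a glasshouse (24/16° C. day/night, 14 hours light, 65% humidity), then sprayed post-emergence at 1000 or 250 g/ha from acetone/water (50:50) with 0.5% Tween 20. Damage was scored visually after 13 days (0 = none, 100 = total).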

The subject of test [8] is Amaranthus retoflexus (AMARE). The description is as above. The conditions noted are these: Amaranthus retroflexus, 312 h. Put shortly: as §2
In test [9] the test system is Echinochloa crus-galli (ECHCG). Described as above. As to conditions: 312 h. Put shortly:
as §2

For test [10], the system named is Ipomea hederaceae (IPOHE). The test is described as above. The conditions noted are these: Ipomoea hederacea, 312 h. Put shortly:
as §2

Test [11] relates to Setaria faberi (SETFA). The description is as above. As to conditions: 312 h. Put shortly: as §2
Test [12] has as its system Solanum nigrum (SOLNI). The test is described as above. As to conditions: 312 h. Put shortly:
as §2

The mark [13] stands for this setting: pre-emergence, 1,000 g/ha, evaluated after 13 days (100=total damage; 0=no damage), read-out: Percentage damage ALOMY.
Where [14] appears, read: pre-emergence, 1,000 g/ha, evaluated after 13 days (100=total damage; 0=no damage), read-out: Percentage damage AMARE.
Where [15] appears, read: pre-emergence, 1,000 g/ha, evaluated after 13 days (100=total damage; 0=no damage), read-out: Percentage damage ECHCG.
[16] abbreviates: pre-emergence, 1,000 g/ha, evaluated after 13 days (100=total damage; 0=no damage), read-out: Percentage damage IPOHE.
[17] abbreviates: pre-emergence, 1,000 g/ha, evaluated after 13 days (100=total damage; 0=no damage), read-out: Percentage damage SETFA.
Setting [18] is: pre-emergence, 1,000 g/ha, evaluated after 13 days (100=total damage; 0=no damage), read-out: Percentage damage SOLNI.
[19] abbreviates: post-emergence, 1,000 g/ha, evaluated after 13 days (100=total damage; 0=no damage), read-out: Percentage damage caused to weed species, ALOMY.
[20] abbreviates: post-emergence, 1,000 g/ha, evaluated after 13 days (100=total damage; 0=no damage), read-out: Percentage damage caused to weed species, AMARE.
Setting [21] is: post-emergence, 1,000 g/ha, evaluated after 13 days (100=total damage; 0=no damage), read-out: Percentage damage caused to weed species, ECHCG.
[22] abbreviates: post-emergence, 1,000 g/ha, evaluated after 13 days (100=total damage; 0=no damage), read-out: Percentage damage caused to weed species, IPOHE.
Setting [23] is: post-emergence, 1,000 g/ha, evaluated after 13 days (100=total damage; 0=no damage), read-out: Percentage damage caused to weed species, SETFA.
[24] abbreviates: post-emergence, 1,000 g/ha, evaluated after 13 days (100=total damage; 0=no damage), read-out: Percentage damage caused to weed species, SOLNI.
Where [25] appears, read: pre-emergence, rate 1,000 g/ha, evaluated after 13 days (100=total damage to plant; 0=no damage), read-out: Percentage damage caused to weed species, ALOMY.
[26] abbreviates: pre-emergence, rate 1,000 g/ha, evaluated after 13 days (100=total damage to plant; 0=no damage), read-out: Percentage damage caused to weed species, AMARE.
Setting [27] is: pre-emergence, rate 1,000 g/ha, evaluated after 13 days (100=total damage to plant; 0=no damage), read-out: Percentage damage caused to weed species, ECHCG.
The mark [28] stands for this setting: pre-emergence, rate 1,000 g/ha, evaluated after 13 days (100=total damage to plant; 0=no damage), read-out: Percentage damage caused to weed species, IPOHE.
Where [29] appears, read: pre-emergence, rate 1,000 g/ha, evaluated after 13 days (100=total damage to plant; 0=no damage), read-out: Percentage damage caused to weed species, SETFA.
Where [30] appears, read: pre-emergence, rate 1,000 g/ha, evaluated after 13 days (100=total damage to plant; 0=no damage), read-out: Percentage damage caused to weed species, SOLNI.
[31] abbreviates: Rate 1,000 g/ha, post-emergence spray, evaluated after 13 days (100=total damage to plant; 0=no damage to plant), read-out: Percentage damage caused to weed species, post-emergence, ALOMY.
The mark [32] stands for this setting: Rate 1,000 g/ha, post-emergence spray, evaluated after 13 days (100=total damage to plant; 0=no damage to plant), read-out: Percentage damage caused to weed species, post-emergence, AMARE.
Where [33] appears, read: Rate 1,000 g/ha, post-emergence spray, evaluated after 13 days (100=total damage to plant; 0=no damage to plant), read-out: Percentage damage caused to weed species, post-emergence, ECHCG.
The mark [34] stands for this setting: Rate 1,000 g/ha, post-emergence spray, evaluated after 13 days (100=total damage to plant; 0=no damage to plant), read-out: Percentage damage caused to weed species, post-emergence, IPOHE.
[35] abbreviates: Rate 1,000 g/ha, post-emergence spray, evaluated after 13 days (100=total damage to plant; 0=no damage to plant), read-out: Percentage damage caused to weed species, post-emergence, SETFA.
Setting [36] is: Rate 1,000 g/ha, post-emergence spray, evaluated after 13 days (100=total damage to plant; 0=no damage to plant), read-out: Percentage damage caused to weed species, post-emergence, SOLNI.

On to `COC(=O)c1nc(C2CC2)nc(NCc2ccc(OC)cc2OC)c1Cl` [Compound 4-110, 5-Chloro-2-cyclopropyl-4-(2,4-dimethoxyphenyl-methylamino)-6-methoxycarbonyl-pyrimidine], for which the pest or weed control at 1000 g/ha amounted to 40% in test [1] (setting [13]); 100% in [2] (setting [14]); 80% in test [3] (setting [15]); 100% in [4] (setting [16]); 40% in test [5] (setting [17]); 90% in test [6] (setting [18]). Further, the pest or weed control at 1000 g/ha in test [7] (setting [19]) stood at 70%; in test [8] (setting [20]) it was 100%; in test [9] (setting [21]), 80%; in test [10] (setting [22]), 100%; in [11] (setting [23]), 80%; in [12] (setting [24]), 80%.

As to `COC(=O)c1nc(-c2ccc(C(F)(F)F)cc2C(F)(F)F)nc(NCc2ccco2)c1Cl` [Compound 234-48, 2-[2,4-Bis(trifluoro-methyl)phenyl]-5-chloro-4-(furan-2-yl-methylamino)-6-methoxycarbonyl-pyrimidine], the pest or weed control at 1000 g/ha was found to be 20% in test [1] (setting [25]); 90% in test [2] (setting [26]); 10% in test [3] (setting [27]); 100% in [4] (setting [28]); 10% in test [5] (setting [29]); 80% in test [6] (setting [30]). For the same compound, the pest or weed control at 1000 g/ha in [7] (setting [31]) was 10%; in test [8] (setting [32]), 100%; in [9] (setting [33]) it was 30%; in test [10] (setting [34]), 100%; in test [11] (setting [35]), 40%; in test [12] (setting [36]), 80%.

For `COC(=O)c1nc(C2CC2)nc(N(CC=C(C)C)Cc2ccccc2C(F)(F)F)c1Cl` [Compound 152-75, 5-Chloro-2-cyclopropyl-6-methoxycarbonyl-4-[N-(3-methylbut-2-en-1-yl)-N-(2-trifluoromethyl-phenylmethyl)-amino]pyrimidine], the pest or weed control at 1000 g/ha in [1] (setting [25]) was 20%; in [2] (setting [26]), 80%; in test [3] (setting [27]), 10%; in test [4] (setting [28]) it was 80%; in [5] (setting [29]) it was 40%; in test [6] (setting [30]), 20%. Further, the pest or weed control at 1000 g/ha came out at 10% in test [7] (setting [31]); 50% in [8] (setting [32]); 0% in test [9] (setting [33]); 60% in test [10] (setting [34]); 10% in test [11] (setting [35]); 60% in test [12] (setting [36]).

As to `COC(=O)c1nc(C2CC2)nc(NCc2ncco2)c1Cl` [Compound 4-148, 5-Chloro-2-cyclopropyl-6-methoxycarbonyl-4-(oxazol-2-ylmethylamino)-pyrimidine], the pest or weed control at 1000 g/ha was 20% in test [1] (setting [13]); 80% in [2] (setting [14]); 30% in test [3] (setting [15]); 100% in test [4] (setting [16]); 20% in test [5] (setting [17]); 90% in test [6] (setting [18]). In addition, the pest or weed control at 1000 g/ha in [7] (setting [19]) was 20%; in test [8] (setting [20]) it was 100%; in test [9] (setting [21]), 40%; in test [10] (setting [22]), 60%; in test [11] (setting [23]) it was 50%; in test [12] (setting [24]), 80%.

For the compound `COC(=O)c1nc(C2CC2)nc(NCc2ccc(Br)o2)c1Cl` [Compound 4-129, 4-(5-bromofuran-2-ylmethylamino)-5-chloro-2-cyclopropyl-6-methoxycarbonyl-pyrimidine], the pest or weed control at 1000 g/ha worked out at 30% in [1] (setting [13]); 100% in [2] (setting [14]); 70% in [3] (setting [15]); 100% in test [4] (setting [16]); 40% in test [5] (setting [17]); 100% in test [6] (setting [18]). Further, the pest or weed control at 1000 g/ha in test [7] (setting [19]) is 40%; in [8] (setting [20]), 100%; in test [9] (setting [21]), 70%; in test [10] (setting [22]), 100%; in test [11] (setting [23]), 90%; in test [12] (setting [24]) it was 90%.

On to `CCCN(Cc1ccccc1)c1nc(C2CC2)nc(C(=O)OC)c1Cl` [Compound 145-60], for which the pest or weed control at 1000 g/ha in test [1] (setting [25]) was 0%; in test [2] (setting [26]), 100%; in [3] (setting [27]), 0%; in [4] (setting [28]) it was 40%; in test [5] (setting [29]), 10%; in test [6] (setting [30]), 70%. Moreover, the pest or weed control at 1000 g/ha in test [7] (setting [31]) turned out to be 20%; in test [8] (setting [32]), 90%; in test [9] (setting [33]), 40%; in test [10] (setting [34]), 80%; in test [11] (setting [35]), 70%; in [12] (setting [36]), 80%.

On to `CCOC(=O)CCN(Cc1ccccc1)c1nc(C2CC2)nc(C(=O)OC)c1Cl` [Compound 162-60, 5-Chloro-2-cyclopropyl-4-[N-(2-ethoxycarbonyl-ethyl)-N-phenylmethyl-amino]-6-methoxycarbonyl-pyrimidine], for which the pest or weed control at 1000 g/ha in test [1] (setting [25]) amounted to 10%; in test [2] (setting [26]), 40%; in test [3] (setting [27]) it was 20%; in test [4] (setting [28]), 70%; in test [5] (setting [29]), 0%; in test [6] (setting [30]) it was 20%. Besides, the pest or weed control at 1000 g/ha in [7] (setting [31]) amounted to 10%; in test [8] (setting [32]), 80%; in [9] (setting [33]), 0%; in test [10] (setting [34]) it was 70%; in test [11] (setting [35]), 0%; in test [12] (setting [36]), 60%.
